# According to US10377743B2, “Inhibitors of RAS and methods of use thereof” (Araxes Pharma LLC, priority 2016, dated 2019):
# Target: T1, KRAS G12C 1-169, his-tagged protein, GDP-loaded (Homo sapiens, UniProt P01116, G12C)
# T1 construct: KRAS G12C 1-169, his-tagged protein, GDP-loaded
# Experiment: Biochemical assay: covalent binding (modification %) to KRAS G12C by mass spectrometry
# Conditions: 2 hour incubation period, 8 μM compound (compounds 21-92)
# Experimental: Test compounds were prepared as 10 mM stock solutions in DMSO (Fisher cat# BP-231-100). KRAS G12C 1-169, his-tagged protein, GDP-loaded was diluted to 2 μM or 0.5 μM in buffer (20 mM Hepes, 150 mM NaCl, 1 mM MgCl2). Compounds were tested for activity as follows:
# Compounds were diluted to 50× final test concentration in DMSO in 96-well storage plates. Compound stock solutions were vortexed before use and observed carefully for any sign of precipitation. Dilutions were as follow: • For 100 μM final compound concentration, compounds were diluted to 5000 μM (5 μL 10 mM compound stock+5 μL DMSO and mixed well by pipetting. • For 30 μM final compound concentration, compounds were diluted to 1500 μM (3 μL 10 mM compound stock+17 μL DMSO) and mixed well by pipetting. • For 10 μM final compound concentration, compounds were diluted to 500 μM (2 μL 10 mM compound stock+38 μL DMSO) and mixed well by pipetting. 49 μL of the stock protein solution was added to each well of a 96-well PCR plate (Fisher cat#1423027). 1 μl of the diluted 50× compounds were added to appropriate wells in the PCR plate using 12-channel pipettor. Reactions were mixed carefully and thoroughly by pipetting up/down with a 200 μL multi-channel pipettor. The plate was sealed well with aluminum plate seal, and stored in drawer at room temperature for 10 minutes, 30 minutes, 2 hours or 24 hours. 5 μL of 2% formic acid (Fisher cat# A117) in de-ionized H2O was then added to each well followed by mixing with a pipette. The plate was then resealed with aluminum seal and stored on dry ice until analyzed as described below.
# The above described assays were analyzed by mass spectrometry according to one of the following two procedures:
# The MS instrument is set to positive polarity, 2 GHz resolution, and low mass (1700) mode and allowed to equilibrate for 30 minutes. The instrument is then calibrated, switched to acquisition mode and the appropriate method loaded.
# After another 30 minute equilibration time, a blank batch (i.e., buffer) is run to ensure equipment is operating properly. The samples are thawed at 37° C. for 10 minutes, briefly centrifuged, and transfer to the bench top. Wells A1 and H12 are spiked with 1 μL 500 μM internal standard peptide, and the plates centrifuged at 2000×g for 5 minutes. The method is then run and masses of each individual well recorded.
# The masses (for which integration data is desired) for each well are pasted into the platemap and exported from the analysis. Masses for the internal standards are exported as well. The data at 50 ppm is extracted for the +19 charge state, and identity of well A1 is assigned using the internal standard spike and integrated. Peak data is exported as a TOF list and the above steps are repeated individually, for the +20, 21, 22, 23, 24, and 25 charge states.
# The masses and peak intensities of KRAS G12C protein species were measured using a Dionex RSLCnano system (Thermo Scientific) connected to a Q Exactive Plus mass spectrometer (Thermo Scientific).
# […] of sample was each loaded onto a Aeris™ 3.6 μm WIDEPORE C4 200 Å, LC Column 50×2.1 mm column maintained at 40° C. at a flow rate of 600 μL/min with 20% Solvent A (0.1% formic acid in H2O) and 80% Solvent B (0.1% formic acid in acetonitrile). The liquid chromatography conditions were 20% solvent B for 1 minute, 20% to 60% solvent B for 1.5 minutes, 60% to 90% solvent for 0.5 minute, 90% solvent B for 0.2 minute, 90% to 20% solvent B for 0.2 minute, and then equilibrated for 1.6 minute before the following sample injection. The flow rate was maintained at 600 μL/min throughout the sample analysis.
# The mass spectrometer was operated in profile mode at a resolution of 17500, 5 microscans, using 50 msec max injection time and an AGC target of 1×10^6, and a full mass range from 800-1850 m/z was recorded. The HCD trapping gas was optimized for maximum sensitivity for intact proteins. […]
row,SMILES,Binding %
1,"C=CC(=O)N1CC(N2Cc3ccc(-c4cccc5cn[nH]c45)cc3C2=O)C1 [Compound 53, 2-(1-acryloylazetidin-3-yl)-6-(1H-indazol-7-yl)isoindolin-1-one]",+ (+ indicates binding activity up to 10%)
2,"C=CC(=O)N1CC(N2Cc3ccc(-c4cccc(O)n4)cc3C2=O)C1 [Compound 54, 2-(1-acryloylazetidin-3-yl)-6-(6-hydroxypyridin-2-yl)isoindolin-1-one]",+ (+ indicates binding activity up to 10%)
3,"C=CC(=O)N1CC(N2Cc3ccc(-c4cccc(C#N)c4)cc3C2=O)C1 [Compound 55, 3-(2-(1-acryloylazetidin-3-yl)-3-oxoisoindolin-5-yl)benzonitrile]",+ (+ indicates binding activity up to 10%)
4,"C=CC(=O)N1CC(N2Cc3ccc(-c4c(C)ccc5[nH]ncc45)cc3C2)C1 [Compound 56, 1-(3-(5-(5-methyl-1H-indazol-4-yl)isoindolin-2-yl)azetidin-1-yl)prop-2-en-1-one]",+ (+ indicates binding activity up to 10%)
5,"C=CC(=O)N1CC(N2Cc3ccc(N4CCc5ccccc54)cc3C2=O)C1 [Compound 57, 2-(1-acryloylazetidin-3-yl)-6-(indolin-1-yl)isoindolin-1-one]",+ (+ indicates binding activity up to 10%)
6,"C=CC(=O)N1CC(N2Cc3ccc(-c4cccc(NC)c4)cc3C2=O)C1 [Compound 58, 2-(1-acryloylazetidin-3-yl)-6-(3-(methylamino)phenyl)isoindolin-1-one]",+ (+ indicates binding activity up to 10%)
7,"C=CC(=O)N1CC(N2Cc3ccc(N4CCC(O)C4)cc3C2=O)C1 (stereo not drawn) [Compound 59, 2-(1-acryloylazetidin-3-yl)-6-(3-hydroxypyrrolidin-1-yl)isoindolin-1-one]",+ (+ indicates binding activity up to 10%)
8,"C=CC(=O)N1CC(N2Cc3ccc(-c4ccccc4NC)cc3C2=O)C1 [Compound 60, 2-(1-acryloylazetidin-3-yl)-6-(2-(methylamino)phenyl)isoindolin-1-one]",+ (+ indicates binding activity up to 10%)
9,"C=CC(=O)N1CC(N2Cc3ccc(-c4ccccc4C#N)cc3C2=O)C1 [Compound 61, 2-(2-(1-acryloylazetidin-3-yl)-3-oxoisoindolin-5-yl)benzonitrile]",+ (+ indicates binding activity up to 10%)
10,"C=CC(=O)N1CC(N2Cc3ccc(N4CCC(N(C)C)C4)cc3C2=O)C1 (stereo not drawn) [Compound 62, 2-(1-acryloylazetidin-3-yl)-6-(3-(dimethylamino)pyrrolidin-1-yl)isoindolin-1-one]",+ (+ indicates binding activity up to 10%)
11,"C=CC(=O)N1CC(N2Cc3cc(C(N)=O)c(-c4cc(O)cc5ccccc45)cc3C2=O)C1 [Compound 63, 2-(1-acryloylazetidin-3-yl)-6-(3-hydroxynaphthalen-1-yl)-1-oxoisoindoline-5-carboxamide]",++ (++ indicates binding activity from 10 to 50%)
12,"C=CC(=O)N1CC(N2Cc3cc(C#N)c(-c4cc(O)cc5ccccc45)cc3C2=O)C1 [Compound 64, 2-(1-acryloylazetidin-3-yl)-6-(3-hydroxynaphthalen-1-yl)-1-oxoisoindoline-5-carbonitrile]",+++ (+++ indicates binding activity greater than 50%)
13,"C=CC(=O)N1CC(N2Cc3ccc(-c4c(C)ccc5[nH]nc(N)c45)cc3C2=O)C1 [Compound 65, 2-(1-acryloylazetidin-3-yl)-6-(3-amino-5-methyl-1H-indazol-4-yl)isoindolin-1-one]",+++ (+++ indicates binding activity greater than 50%)
14,"C=CC(=O)N1CC(N2Cc3ccc(-c4cn[nH]c4)cc3C2=O)C1 [Compound 66, 2-(1-acryloylazetidin-3-yl)-6-(1H-pyrazol-4-yl)isoindolin-1-one]",+ (+ indicates binding activity up to 10%)
15,"C=CC(=O)N1CC(N2Cc3ccc(-c4cc(O)cc5ccccc45)c(F)c3C2=O)C1 [Compound 67, 2-(1-acryloylazetidin-3-yl)-7-fluoro-6-(3-hydroxynaphthalen-1-yl)isoindolin-1-one]",+++ (+++ indicates binding activity greater than 50%)
16,"C=CC(=O)N1CC(N2Cc3ccc(-c4cccnc4O)cc3C2=O)C1 [Compound 68, 2-(1-acryloylazetidin-3-yl)-6-(2-hydroxypyridin-3-yl)isoindolin-1-one]",+ (+ indicates binding activity up to 10%)
17,"C=CC(=O)N1CC(N2Cc3ccc(-c4c(C)ccc5[nH]ncc45)c(F)c3C2=O)C1 [Compound 69, 2-(1-acryloylazetidin-3-yl)-7-fluoro-6-(5-methyl-1H-indazol-4-yl)isoindolin-1-one]",++ (++ indicates binding activity from 10 to 50%)
18,"C=CC(=O)N1CC(N2Cc3cc(Cl)c(-c4cc(O)cc5ccccc45)cc3C2=O)C1 [Compound 70, 2-(1-acryloylazetidin-3-yl)-5-chloro-6-(3-hydroxynaphthalen-1-yl)isoindolin-1-one]",+++ (+++ indicates binding activity greater than 50%)
19,"C=CC(=O)N1CC(N2Cc3ccc(NC4CCCN(C(C)=O)C4)cc3C2=O)C1 (stereo not drawn) [Compound 71, 6-((1-acetylpiperidin-3-yl)amino)-2-(1-acryloylazetidin-3-yl)isoindolin-1-one]",+ (+ indicates binding activity up to 10%)
20,"C=CC(=O)N1CC(N2Cc3ccc(N4CCCC(O)C4)cc3C2=O)C1 (stereo not drawn) [Compound 72, 2-(1-acryloylazetidin-3-yl)-6-(3-hydroxypiperidin-1-yl)isoindolin-1-one]",+ (+ indicates binding activity up to 10%)
21,"C=CC(=O)N1CC(N2Cc3ccc(-c4c(O)ccc5ccccc45)cc3C2=O)C1 [Compound 73, 2-(1-acryloylazetidin-3-yl)-6-(2-hydroxynaphthalen-1-yl)isoindolin-1-one]",++ (++ indicates binding activity from 10 to 50%)
22,"C=CC(=O)N1CC(N2Cc3cc(Cl)c(-c4c(C)ccc5[nH]ncc45)cc3C2=O)C1 [Compound 74, 2-(1-acryloylazetidin-3-yl)-5-chloro-6-(5-methyl-1H-indazol-4-yl)isoindolin-1-one]",++ (++ indicates binding activity from 10 to 50%)
23,"C=CC(=O)N1CC(N2Cc3ccc(NC4CCN(C(C)=O)C4)cc3C2=O)C1 (stereo not drawn) [Compound 75, 6-((1-acetylpyrrolidin-3-yl)amino)-2-(1-acryloylazetidin-3-yl)isoindolin-1-one]",+ (+ indicates binding activity up to 10%)
24,"C=CC(=O)N1CC(N2Cc3ccc(C(=O)N4CCC(N(C)C)C4)cc3C2=O)C1 (stereo not drawn) [Compound 76, 2-(1-acryloylazetidin-3-yl)-6-(3-(dimethylamino)pyrrolidine-1-carbonyl)isoindolin-1-one]",+ (+ indicates binding activity up to 10%)
25,"C=CC(=O)N1CC(N2Cc3c(C(N)=O)cc(-c4c(C)ccc5[nH]ncc45)cc3C2=O)C1 [Compound 77, 2-(1-acryloylazetidin-3-yl)-6-(5-methyl-1H-indazol-4-yl)-1-oxoisoindoline-4-carboxamide]",+ (+ indicates binding activity up to 10%)
26,"C=CC(=O)N1CC(N2Cc3ccc(N4CCCC(N(C)C)C4)cc3C2=O)C1 (stereo not drawn) [Compound 78, 2-(1-acryloylazetidin-3-yl)-6-(3-(dimethylamino)piperidin-1-yl)isoindolin-1-one]",+ (+ indicates binding activity up to 10%)
27,"C=CC(=O)N1CC(N2Cc3ccc(C(=O)N4CCC(N)C4)cc3C2=O)C1 (stereo not drawn) [Compound 79, 2-(1-acryloylazetidin-3-yl)-6-(3-aminopyrrolidine-1-carbonyl)isoindolin-1-one]",+ (+ indicates binding activity up to 10%)
